{
  "source": "patent EP0377044B1",
  "about": "“PROTECTIVE AGENT FOR RADIATION HAZARD” (MITSUI TOATSU CHEMICALS, Inc., priority 1988, dated 1989)",
  "type_in_all_cases": "in vivo",
  "key": {"[1]": {"system": "animals subjected to whole body irradiation with lethal or sub-lethal doses", "assay": "Recovery of hematopoietic dysfunctions and immune responses after whole body irradiation (general description)", "method": "On the other hand, animals were subjected to whole body irradiation with lethal or sub-lethal doses and changes with the lapse of time in the number of blood cells were measured for given periods of time in order to check the medicament for the promotive effect on the recovery of hematopoietic dysfunctions. Blood cells used as index included red blood cells, reticulocytes, white blood cells such as lymphocytes and neutrophils, platelets, hemoglobins, hematocrit and the like. […] Thus, as is evident from these observations, the medicament of the present invention is believed to act on hematopoietic organs, e.g. bone marrow and spleen, and exert the life span-extending or life-saving effect due to its inhibitory or recovery-promoting effect on hematopoietic dysfunctions, and it is therefore valuable as a preventive and therapeutic agent against radiation damages."}, "[2]": {"system": "mice irradiated with 600R X-rays", "assay": "Survival of mice after whole body irradiation with 600R X-rays", "method": "(§1) Male, 10 week-old C3H/He mice were used and groups of 10 - 15 animals each were prepared.\n(§2) The mice were subjected to whole body irradiation for 8 minutes using a X-radiation unit (manufactured by Shimazu Seisaku-sho, Shin-Ai 250 II). These animals received, once per day, subcutaneous administration of 100 µg of FTS·CH₃COOH·2H₂O as used in Example 1 for consecutive 14 days. For a pre-administered group, the administration started two days before the irradiation. For a post-administered group, the first administration was effected immediately after the irradiation. As control groups, one group which received only once subcutaneous administration of 1 KE of Picibanil immediately after the irradiation and another group which received every day administration of physiological saline were prepared.\nIn the same manner as in Experimental Examples 1 and 2, mice were irradiated with X-rays for 6 minutes. For a period of consecutive 14 days from 2 days before irradiation, the animals were subcutaneously administered, once a day, with 100 µg/day of FTS·CH₃COOH·2H₂O as medicament."}, "[3]": {"system": "Wister rats", "assay": "Toxicity test, repeated subcutaneous administration to rats", "description": "Thus, the medicament of the present invention is a safe medicament of extremely low toxicity and can be administered for a long period of time."}, "[4]": {"system": "cancer-carrying mice", "assay": "Radiotherapeutic experiments on cancer-carrying mice", "details": "pre- or post-irradiation administration"}, "[5]": {"system": "mice were subjected to 600R X-radiation / 400R X-radiation", "assay": "Blood test in X-irradiated mice (600R and 400R)", "details": "for Blood parameters HCT / Blood parameters HGB / Blood parameters PLT / Blood parameters RBC / Blood parameters RET / Blood parameters WBC: pre-administration with 100 µg; for Blood parameters HCT: hematocrit value; for Blood parameters HGB: hemoglobin; for Blood parameters PLT: number of blood platelet; for Blood parameters RBC: number of red blood cells; for Blood parameters RET: number of reticulocytes; for Blood parameters WBC: number of white blood cells", "method": "Independently of the irraditation carried out in Experimental Example 3 with mice for life/death observation, mice were subjected to 600R X-radiation to conduct a blood test on a dayly basis. Another group of mice was prepared and subjected to 400R X-radiation. Each of the 600R- and 400R-irradiated groups was further divided into two, one `group being for pre-administration with 100 µg of the above mentioned medicament and the other group serving as a control. Samples of blood were taken every day from each mouse and tested for the number white blood cells (WBC), that of red blood cells (RBC), that of reticulocytes (RET), that of blood platelet (PLT), that of hemoglobin (HGB) and hematocrit value (HCT)."}, "[6]": {"system": "mice irradiated with 900R X-rays", "assay": "Survival of mice after whole body irradiation with 900R X-rays", "details": "900R X-rays, post-administration 100 µg/day s.c., twelve times in all (days 0-5, 7-12), 15 animals used", "method": "as §1, §2\nIn the same manner as in Experimental Example 1, mice were subcutaneously administered, after X-radiation for 9 minutes, with 100 µg/day of FTS·CH₃COOH·2H₂O, once a day and twelve times in all, i.e. on the zero, 1st, 2nd, 3rd, 4th, 5th, 7th, 8th, 9th, 10th, 11th and 12th days."}},
  "note": "Square brackets hold non-standard residues; d marks the D form. Peptide text beside a SMILES is read from it. pGlu = O=C1CC[C@@H](C(=O)O)N1",
  "data": [
    {"smiles": "C[C@H](NC(=O)[C@@H]1CCC(=O)N1)C(=O)N[C@@H](CCCCN)C(=O)N[C@@H](CO)C(=O)N[C@@H](CCC(N)=O)C(=O)NCC(=O)NCC(=O)N[C@@H](CO)C(=O)N[C@@H](CC(N)=O)C(=O)O", "note": "[medicament, pGlu-Ala-Lys-Ser-Gln-Gly-Gly-Ser-Asn] ([pGlu]AKSQGGSN-OH)", "values": [
      {"measurement": "immune responses of immunocytes (spleen cells response to Con A, thymus cells reactivity to IL-1)", "setting": "[1]; irradiated animals, examined every day, versus control group", "result": "apparently higher than those for the control group"},
      {"measurement": "immunocytes capabilities of humoral factor production (IL-1 by peritoneal macrophage, CSF by spleen cells and peritoneal macrophage)", "setting": "[1]; irradiated animals, versus control group", "result": "superior to the control group"},
      {"measurement": "reduction of blood cells due to irradiation", "setting": "[1]; whole body irradiation with lethal or sub-lethal doses, red blood cells, reticulocytes, white blood cells, platelets, hemoglobins, hematocrit", "result": "markedly inhibited"},
      {"measurement": "animals survived", "setting": "[2]; in 19 days, 100 µg/day s.c. 14 days from 2 days before irradiation, control four out of ten", "result": "ten out of ten"},
      {"measurement": "The number of days and survivals after X-radiation 8 (days)", "setting": "[2]; pre-administration 100 µg/day s.c., 14 days from 2 days before irradiation, day 8, 10 animals used", "result": 10},
      {"measurement": "The number of days and survivals after X-radiation 9 (days)", "setting": "[2]; pre-administration 100 µg/day s.c., 14 days from 2 days before irradiation, day 9, 10 animals used", "result": 10},
      {"measurement": "The number of days and survivals after X-radiation 10 (days)", "setting": "[2]; pre-administration 100 µg/day s.c., 14 days from 2 days before irradiation, day 10, 10 animals used", "result": 10},
      {"measurement": "The number of days and survivals after X-radiation 11 (days)", "setting": "[2]; pre-administration 100 µg/day s.c., 14 days from 2 days before irradiation, day 11, 10 animals used", "result": 10},
      {"measurement": "The number of days and survivals after X-radiation 12 (days)", "setting": "[2]; pre-administration 100 µg/day s.c., 14 days from 2 days before irradiation, day 12, 10 animals used", "result": 10},
      {"measurement": "The number of days and survivals after X-radiation 13 (days)", "setting": "[2]; pre-administration 100 µg/day s.c., 14 days from 2 days before irradiation, day 13, 10 animals used", "result": 10},
      {"measurement": "The number of days and survivals after X-radiation 14 (days)", "setting": "[2]; pre-administration 100 µg/day s.c., 14 days from 2 days before irradiation, day 14, 10 animals used", "result": 10},
      {"measurement": "The number of days and survivals after X-radiation 15 (days)", "setting": "[2]; pre-administration 100 µg/day s.c., 14 days from 2 days before irradiation, day 15, 10 animals used", "result": 10},
      {"measurement": "The number of days and survivals after X-radiation 16 (days)", "setting": "[2]; pre-administration 100 µg/day s.c., 14 days from 2 days before irradiation, day 16, 10 animals used", "result": 10},
      {"measurement": "The number of days and survivals after X-radiation 17 (days)", "setting": "[2]; pre-administration 100 µg/day s.c., 14 days from 2 days before irradiation, day 17, 10 animals used", "result": 10},
      {"measurement": "The number of days and survivals after X-radiation 18 (days)", "setting": "[2]; pre-administration 100 µg/day s.c., 14 days from 2 days before irradiation, day 18, 10 animals used", "result": 10},
      {"measurement": "The number of days and survivals after X-radiation 19 (days)", "setting": "[2]; pre-administration 100 µg/day s.c., 14 days from 2 days before irradiation, day 19, 10 animals used", "result": 10},
      {"measurement": "The number of days and survivals after X-radiation 30 (days)", "setting": "[2]; pre-administration 100 µg/day s.c., 14 days from 2 days before irradiation, day 30, 10 animals used", "result": 10},
      {"measurement": "toxicity (external behavior observation, biochemical diagnosis of sera, pathological anatomy)", "setting": "[3]; 30 mg/kg subcutaneously every day for consecutive 21 days, rats", "result": "no abnormal symptom was found in external behavior observation and biochemical diagnosis of sera and in a result of pathological anatomy"},
      {"measurement": "toxicity", "setting": "[3]; 30 mg/kg subcutaneously for consecutive 21 days, ten Wister rats of 5 weeks old", "result": "No toxicity was observed"},
      {"measurement": "anti-cancer effect of radiotherapy", "setting": "[4]", "result": "potentiated"},
      {"measurement": "Blood parameters HCT", "setting": "[5]; 400R X-rays, on the 14th day", "result": "29.8±1.4"},
      {"measurement": "Blood parameters HGB", "setting": "[5]; 400R X-rays, on the 14th day", "result": "8.8±0.3"},
      {"measurement": "Blood parameters PLT", "setting": "[5]; 400R X-rays, on the 14th day", "result": "240.6±14.3"},
      {"measurement": "Blood parameters RBC", "setting": "[5]; 400R X-rays, on the 14th day", "result": "522.7±21.7"},
      {"measurement": "Blood parameters RET", "setting": "[5]; 400R X-rays, on the 14th day", "result": "30.0±6.5"},
      {"measurement": "Blood parameters WBC", "setting": "[5]; 400R X-rays, on the 14th day", "result": "8.7±0.4"},
      {"measurement": "Blood parameters HCT", "setting": "[5]; 600R X-rays, on the 7th day", "result": "39.1±5.5"},
      {"measurement": "Blood parameters HGB", "setting": "[5]; 600R X-rays, on the 7th day", "result": "12.3±1.9"},
      {"measurement": "Blood parameters PLT", "setting": "[5]; 600R X-rays, on the 7th day", "result": "372.0±174.7"},
      {"measurement": "Blood parameters RBC", "setting": "[5]; 600R X-rays, on the 7th day", "result": "691.8±96.1"},
      {"measurement": "Blood parameters RET", "setting": "[5]; 600R X-rays, on the 7th day", "result": "24.6±10.9"},
      {"measurement": "Blood parameters WBC", "setting": "[5]; 600R X-rays, on the 7th day", "result": "34.2±25.2"},
      {"measurement": "blood parameters (WBC, RBC, RET, PLT, HGB, HCT)", "setting": "[5]; 600R or 400R X-radiation, pre-administration 100 µg, compared with control group, summary of Table 4", "result": "apparently improved"},
      {"measurement": "The number of days and survivals after X-radiation 9 (days)", "setting": "[6]; day 9", "result": 15},
      {"measurement": "The number of days and survivals after X-radiation 10 (days)", "setting": "[6]; day 10", "result": 13},
      {"measurement": "The number of days and survivals after X-radiation 11 (days)", "setting": "[6]; day 11", "result": 12}
    ]}
  ]
}
